Results reported in patent US8026278B2, “Inhibitors of pyruvate kinase as therapeutic agents for cancer” (priority 2005, dated 2011).
Structures can show the parent of a compound that is named as a salt. Where two headings read alike, the source gives them in different places.

Experiments:
[1] = system: MCF7 (breast) cancer cell line; assay: MTT assay, inhibition of cell proliferation, MCF7; assay type: cell-based; conditions: MCF7, 72 hours
Procedure: (§1) The compounds of the invention were tested for their inhibition potential of cell proliferation. MCF7 (breast) and SF268 (glioma) cancer cell lines were incubated with different concentrations of the compounds and their viability was assessed using an MTT (3-(4,5-dimethylthiazol-2-yl)-2,5-diphenyltetrazolium bromide) assay. The MTT assay is well known in the art (see for example Slater et al., Biochim. Biophys. Acta 77 (1963) 383). The cells were incubated with a given inhibitor for 72 hours and assayed.

[2] = target: T1, Pyruvate kinase isolated from rabbit muscle (Oryctolagus cuniculus, UniProt P11974); assay: Inhibition of pyruvate kinase (indirect assay quantifying ADP production); assay type: biochemical
T1 construct: Pyruvate kinase isolated from rabbit muscle; purchased Sigma-Aldrich; host or cells: rabbit muscle (tissue-derived enzyme)
Procedure: The compounds E-3-chlorophosphoenolpyruvate ditriethyl-ammonium salt (ECPDAT), Z-3-chlorophosphoenolpyruvate tritriethyl-ammonium salt (CPTP), phosphoenol-3-bromo-pyruvic acid mono-cyclohexyl ammonium salt (PBPA), 2-bromooxoethylphosphonic acid mono-cyclohexyl-ammonium salt (BOEPA) and 3-bromopyruvic acid (BrPyA) were tested for their efficiency at inhibiting pyruvate kinase. Pyruvate kinase isolated from rabbit muscle was purchased from Sigma-Aldrich. Pyruvate kinase was assayed indirectly by quantifying ADP production formed in the reaction ATP+pyruvate to ADP+phosphoenolpyruvate. Inhibitors were added to the reaction mixture immediately before the reaction was started by the addition of ATP.

[3] = system: SF268 (glioma) cancer cell line; assay: MTT assay, inhibition of cell proliferation, SF268; assay type: cell-based; conditions: SF268, 72 hours
Procedure: as §1

T1 sequence (P11974 whole entry): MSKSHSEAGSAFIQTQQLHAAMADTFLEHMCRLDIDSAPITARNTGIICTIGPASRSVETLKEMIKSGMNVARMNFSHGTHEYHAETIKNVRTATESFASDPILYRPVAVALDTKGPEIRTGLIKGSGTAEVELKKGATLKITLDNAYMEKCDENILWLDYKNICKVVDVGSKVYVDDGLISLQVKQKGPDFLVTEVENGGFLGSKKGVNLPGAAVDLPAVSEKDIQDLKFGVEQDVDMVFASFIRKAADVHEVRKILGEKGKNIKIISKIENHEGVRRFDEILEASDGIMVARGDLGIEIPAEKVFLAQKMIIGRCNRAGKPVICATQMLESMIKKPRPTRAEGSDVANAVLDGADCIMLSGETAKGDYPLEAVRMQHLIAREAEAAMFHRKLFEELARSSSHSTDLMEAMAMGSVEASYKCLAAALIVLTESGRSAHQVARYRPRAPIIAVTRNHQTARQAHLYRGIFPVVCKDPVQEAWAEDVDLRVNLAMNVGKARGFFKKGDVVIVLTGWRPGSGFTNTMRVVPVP

O=C(CBr)P(=O)(O)O [BOEPA]
Inhibition of cell proliferation [1]: inhibited cell proliferation
% (A-Blank relative to control) ([1]; 10 uM): 93.37%
A-Blank (Average-Blank) O.D. at 570 nm ([1]; 10 uM): 0.7642 O.D.
Average O.D. reading at 570 nm ([1]; 10 uM): 0.8518 O.D.
% (A-Blank relative to control) ([1]; 25 uM): 93.769%
A-Blank (Average-Blank) O.D. at 570 nm ([1]; 25 uM): 0.7675 O.D.
Average O.D. reading at 570 nm ([1]; 25 uM): 0.855 O.D.
% (A-Blank relative to control) ([1]; 50 uM): 91.142%
A-Blank (Average-Blank) O.D. at 570 nm ([1]; 50 uM): 0.746 O.D.
Average O.D. reading at 570 nm ([1]; 50 uM): 0.8335 O.D.
% (A-Blank relative to control) ([1]; 75 uM): 93.28%
A-Blank (Average-Blank) O.D. at 570 nm ([1]; 75 uM): 0.7635 O.D.
Average O.D. reading at 570 nm ([1]; 75 uM): 0.851 O.D.
% (A-Blank relative to control) ([1]; 100 uM): 91.57%
A-Blank (Average-Blank) O.D. at 570 nm ([1]; 100 uM): 0.7495 O.D.
Average O.D. reading at 570 nm ([1]; 100 uM): 0.837 O.D.
% (A-Blank relative to control) ([1]; 200 uM): 89.249%
A-Blank (Average-Blank) O.D. at 570 nm ([1]; 200 uM): 0.7305 O.D.
Average O.D. reading at 570 nm ([1]; 200 uM): 0.818 O.D.
% (A-Blank relative to control) ([1]; 300 uM): 56.2004%
A-Blank (Average-Blank) O.D. at 570 nm ([1]; 300 uM): 0.46 O.D.
Average O.D. reading at 570 nm ([1]; 300 uM): 0.5475 O.D.
% (A-Blank relative to control) ([1]; 500 uM): 36.68%
A-Blank (Average-Blank) O.D. at 570 nm ([1]; 500 uM): 0.3003 O.D.
Average O.D. reading at 570 nm ([1]; 500 uM): 0.3877 O.D.
inhibition at 0.1 µM [2]: 0%
inhibition at 1 µM [2]: 0%
inhibition at 10 µM [2]: 0%
Inhibition of cell proliferation [3]: inhibited cell proliferation
% (A-Blank relative to control) ([3]; 10 uM): 101.2806%
A-Blank (Average-Blank) O.D. at 570 nm ([3]; 10 uM): 0.692 O.D.
Average O.D. reading at 570 nm ([3]; 10 uM): 0.7792 O.D.
% (A-Blank relative to control) ([3]; 25 uM): 99.49%
A-Blank (Average-Blank) O.D. at 570 nm ([3]; 25 uM): 0.68 O.D.
Average O.D. reading at 570 nm ([3]; 25 uM): 0.767 O.D.
% (A-Blank relative to control) ([3]; 50 uM): 100.8%
A-Blank (Average-Blank) O.D. at 570 nm ([3]; 50 uM): 0.689 O.D.
Average O.D. reading at 570 nm ([3]; 50 uM): 0.776 O.D.
% (A-Blank relative to control) ([3]; 75 uM): 96.52%
A-Blank (Average-Blank) O.D. at 570 nm ([3]; 75 uM): 0.66 O.D.
Average O.D. reading at 570 nm ([3]; 75 uM): 0.747 O.D.
% (A-Blank relative to control) ([3]; 100 uM): 90.45%
A-Blank (Average-Blank) O.D. at 570 nm ([3]; 100 uM): 0.618 O.D.
Average O.D. reading at 570 nm ([3]; 100 uM): 0.705 O.D.
% (A-Blank relative to control) ([3]; 200 uM): 53.055%
A-Blank (Average-Blank) O.D. at 570 nm ([3]; 200 uM): 0.3625 O.D.
Average O.D. reading at 570 nm ([3]; 200 uM): 0.4498 O.D.
% (A-Blank relative to control) ([3]; 300 uM): 12.221%
A-Blank (Average-Blank) O.D. at 570 nm ([3]; 300 uM): 0.0835 O.D.
Average O.D. reading at 570 nm ([3]; 300 uM): 0.1708 O.D.
% (A-Blank relative to control) ([3]; 500 uM): 5.196%
A-Blank (Average-Blank) O.D. at 570 nm ([3]; 500 uM): 0.0355 O.D.
Average O.D. reading at 570 nm ([3]; 500 uM): 0.1227 O.D.

O=C(O)C(=O)CBr [BrPyA, 3-bromopyruvic acid, reference compound]
inhibition at 100 µM ([2]; Concentration 0.1 mM): 0%
inhibition at 1000 µM ([2]; Concentration 1 mM): 0%
inhibition at 10000 µM ([2]; Concentration 10 mM): 10.9%
inhibition at 100000 µM ([2]; Concentration 100 mM): 57.8%

O=C(O)C(=CBr)OP(=O)(O)O [PBPA, phosphoenol-3-bromo-pyruvic acid mono-cyclohexyl ammonium salt]
Inhibition of cell proliferation [1]: inhibited cell proliferation
% (A-Blank relative to control) ([1]; 10 uM): 94.23%
A-Blank (Average-Blank) O.D. at 570 nm ([1]; 10 uM): 0.7632 O.D.
Average O.D. reading at 570 nm ([1]; 10 uM): 0.846 O.D.
% (A-Blank relative to control) ([1]; 25 uM): 97.16%
A-Blank (Average-Blank) O.D. at 570 nm ([1]; 25 uM): 0.787 O.D.
Average O.D. reading at 570 nm ([1]; 25 uM): 0.8698 O.D.
% (A-Blank relative to control) ([1]; 50 uM): 97.901%
A-Blank (Average-Blank) O.D. at 570 nm ([1]; 50 uM): 0.793 O.D.
Average O.D. reading at 570 nm ([1]; 50 uM): 0.8758 O.D.
% (A-Blank relative to control) ([1]; 75 uM): 98.827%
A-Blank (Average-Blank) O.D. at 570 nm ([1]; 75 uM): 0.8005 O.D.
Average O.D. reading at 570 nm ([1]; 75 uM): 0.8833 O.D.
% (A-Blank relative to control) ([1]; 100 uM): 95.71%
A-Blank (Average-Blank) O.D. at 570 nm ([1]; 100 uM): 0.7753 O.D.
Average O.D. reading at 570 nm ([1]; 100 uM): 0.858 O.D.
% (A-Blank relative to control) ([1]; 200 uM): 93.333%
A-Blank (Average-Blank) O.D. at 570 nm ([1]; 200 uM): 0.756 O.D.
Average O.D. reading at 570 nm ([1]; 200 uM): 0.8388 O.D.
% (A-Blank relative to control) ([1]; 300 uM): 84.9074%
A-Blank (Average-Blank) O.D. at 570 nm ([1]; 300 uM): 0.6877 O.D.
Average O.D. reading at 570 nm ([1]; 300 uM): 0.7705 O.D.
% (A-Blank relative to control) ([1]; 500 uM): 75.31%
A-Blank (Average-Blank) O.D. at 570 nm ([1]; 500 uM): 0.61 O.D.
Average O.D. reading at 570 nm ([1]; 500 uM): 0.6927 O.D.
Inhibition of pyruvate kinase compared with BrPyA [2]: inhibited pyruvate kinase at lower concentrations than BrPyA
inhibition at 0.1 µM ([2]; Concentration 0.1 μM, read-out: % Inhibition): 0%
inhibition at 1 µM ([2]; Concentration 1 μM, read-out: % Inhibition): 13.8%
inhibition at 10 µM ([2]; Concentration 10 μM, read-out: % Inhibition): 28.6%
Inhibition of cell proliferation [3]: inhibited cell proliferation
% (A-Blank relative to control) ([3]; 10 uM): 100.1%
A-Blank (Average-Blank) O.D. at 570 nm ([3]; 10 uM): 0.6935 O.D.
Average O.D. reading at 570 nm ([3]; 10 uM): 0.7798 O.D.
% (A-Blank relative to control) ([3]; 25 uM): 102.02%
A-Blank (Average-Blank) O.D. at 570 nm ([3]; 25 uM): 0.7068 O.D.
Average O.D. reading at 570 nm ([3]; 25 uM): 0.793 O.D.
% (A-Blank relative to control) ([3]; 50 uM): 99.567%
A-Blank (Average-Blank) O.D. at 570 nm ([3]; 50 uM): 0.6898 O.D.
Average O.D. reading at 570 nm ([3]; 50 uM): 0.776 O.D.
% (A-Blank relative to control) ([3]; 75 uM): 100.11%
A-Blank (Average-Blank) O.D. at 570 nm ([3]; 75 uM): 0.6935 O.D.
Average O.D. reading at 570 nm ([3]; 75 uM): 0.7798 O.D.
% (A-Blank relative to control) ([3]; 100 uM): 95.453%
A-Blank (Average-Blank) O.D. at 570 nm ([3]; 100 uM): 0.6613 O.D.
Average O.D. reading at 570 nm ([3]; 100 uM): 0.7475 O.D.
% (A-Blank relative to control) ([3]; 200 uM): 90.978%
A-Blank (Average-Blank) O.D. at 570 nm ([3]; 200 uM): 0.6303 O.D.
Average O.D. reading at 570 nm ([3]; 200 uM): 0.7165 O.D.
% (A-Blank relative to control) ([3]; 300 uM): 79.7546%
A-Blank (Average-Blank) O.D. at 570 nm ([3]; 300 uM): 0.5525 O.D.
Average O.D. reading at 570 nm ([3]; 300 uM): 0.6388 O.D.
% (A-Blank relative to control) ([3]; 500 uM): 74.49%
A-Blank (Average-Blank) O.D. at 570 nm ([3]; 500 uM): 0.516 O.D.
Average O.D. reading at 570 nm ([3]; 500 uM): 0.6022 O.D.
